These molecules were tested against T1, GSK-3β (AA 1-420) (Homo sapiens, UniProt P49841) (assay: Ki determination for the inhibition of GSK-3, standard coupled enzyme system). Conditions: not given.
T1 construct: GSK-3β (AA 1-420)
Type: biochemical
Description: Final substrate concentrations in the assay were 20 μM ATP (Sigma Chemicals, St Louis, Mo.) and 300 μM peptide (HSSPHQS(PO3H2)EDEEE, American Peptide, Sunnyvale, Calif.). Reactions were carried out at 30° C. and 20 nM GSK-3β. Final concentrations of the components of the coupled enzyme system were 2.5 mM phosphoenolpyruvate, 300 μM NADH, 30 μg/ml pyruvate kinase and 10 μg/ml lactate dehydrogenase.
An assay stock buffer solution was prepared containing all of the reagents listed above with the exception of ATP and the test compound of interest. The assay stock buffer solution (175 μl) was incubated in a 96 well plate with 5 μl of the test compound of interest at final concentrations spanning 0.002 μM to 30 μM at 30 ° C. for 10 min. […] The reaction was initiated by the addition of 20 μl of ATP (final concentration 20 μM). Rates of reaction were obtained using a Molecular Devices Spectramax plate reader (Sunnyvale, Calif.) over 10 min at 30° C. The Ki values were determined from the rate data as a function of inhibitor concentration.

T1 sequence (P49841 whole entry, the tested form may be a part): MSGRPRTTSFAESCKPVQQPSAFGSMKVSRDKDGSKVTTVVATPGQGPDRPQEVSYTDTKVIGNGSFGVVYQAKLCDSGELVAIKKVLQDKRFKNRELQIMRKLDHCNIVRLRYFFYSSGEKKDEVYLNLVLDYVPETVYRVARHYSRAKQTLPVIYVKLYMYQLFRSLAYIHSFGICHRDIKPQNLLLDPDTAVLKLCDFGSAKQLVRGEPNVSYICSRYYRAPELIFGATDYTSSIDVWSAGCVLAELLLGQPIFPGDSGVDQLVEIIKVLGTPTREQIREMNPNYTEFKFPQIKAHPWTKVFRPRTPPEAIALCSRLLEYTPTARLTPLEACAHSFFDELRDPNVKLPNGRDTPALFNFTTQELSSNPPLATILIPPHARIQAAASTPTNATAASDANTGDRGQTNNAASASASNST

| Structure (SMILES) | Ki [µM] |
| --- | --- |
| COc1ccc(N/N=C2\C(=O)NN=C2c2cccnc2)cc1 [Compound 20] | < 0.1 |

Same assay, conditions: 20 μM ATP, 300 μM peptide, 20 nM GSK-3β, 30° C.; read-out: Ki values for GSK-3

| Structure (SMILES) | Ki [µM] |
| --- | --- |
| O=C1NN=C(c2ccccc2)/C1=N/Nc1ccccc1Cl [Compound 12] | 0.1 to 1 |
| O=C1NN=C(c2ccccn2)/C1=N/Nc1ccccc1Cl [Compound 14] | 0.1 to 1 |
| O=C1NN=C(c2cccnc2)/C1=N/Nc1ccccc1Cl [Compound 15] | 0.1 to 1 |
| O=C1NN=C(c2ccncc2)/C1=N/Nc1ccccc1Cl [Compound 16] | 0.1 to 1 |
| O=C1NN=C(c2ccccn2)C1=NNc1ccc(Cl)cc1 [Compound 17] | 0.1 to 1 |
| COc1ccc(N/N=C2\C(=O)NN=C2c2ccncc2)cc1 [Compound 21] | < 0.1 |
| O=C1NN=C(c2ccccc2F)C1=NNc1ccc(Cl)cc1 [Compound 27] | 0.1 to 1 |
| COc1ccc(N/N=C2\C(=O)NN=C2c2cccc(OC)c2)cc1 [Compound 50] | < 0.1 |
| COc1ccc(C2=NNC(=O)/C2=N\Nc2ccc(N(C)C)cc2)cc1 [Compound 51] | < 0.1 |
| COc1cccc(C2=NNC(=O)/C2=N\Nc2ccc(N(C)C)cc2)c1 [Compound 53] | < 0.1 |
| COc1ccc(C2=NNC(=O)C2=NNc2ccc(Br)cc2)cc1OC [Compound 55] | < 0.1 |
| COc1ccc(C2=NNC(=O)C2=NNc2ccc(C(F)(F)F)cc2)cc1OC [Compound 64] | < 0.1 |
| COc1cccc(C2=NNC(=O)C2=NNc2ccc(C(F)(F)F)cc2)c1 [Compound 65] | < 0.1 |
| COc1ccc(C2=NNC(=O)C2=NNc2cccc(C(F)(F)F)c2)cc1 [Compound 66] | < 0.1 |
| COc1ccc(C2=NNC(=O)/C2=N\Nc2cccc(Cl)c2)cc1 [Compound 69] | < 0.1 |
| COc1cccc(C2=NNC(=O)/C2=N\Nc2cccc(Cl)c2)c1 [Compound 71] | < 0.1 |
| COc1ccc(C2=NNC(=O)C2=NNc2cccc(OC)c2)cc1 [Compound 72] | < 0.1 |
| N#Cc1ccc(C2=NNC(=O)C2=NNc2ccc(Cl)cc2)cc1 [Compound 75] | < 0.1 |
| COc1ccc(NN=C2C(=O)NN=C2c2ccc(C#N)cc2)cc1 [Compound 76] | 0.1 to 1 |

| Structure (SMILES) | Ki [µM] |
| --- | --- |
| COc1ccc(C2=NNC(=O)C2=NNc2ccc([N+](=O)[O-])cc2)cc1 [Compound 77] | < 0.1 |
| COc1ccc(C2=NNC(=O)C2=NNc2ccc(-c3ccc(F)cc3)cc2)cc1 [Compound 82] | < 0.1 |
| COc1ccc(C2=NNC(=O)C2=NNc2ccc(-c3ccc(F)cc3)cc2)cc1OC [Compound 83] | < 0.1 |
| COc1cccc(C2=NNC(=O)C2=NNc2ccc(Oc3ccccc3)cc2)c1 [Compound 87] | < 0.1 |
| COc1ccc(C2=NNC(=O)C2=NNc2cccc(Oc3ccccc3)c2)cc1 [Compound 88] | < 0.1 |
| COc1ccc(C2=NNC(=O)C2=NNc2cccc(Oc3ccccc3)c2)cc1OC [Compound 89] | < 0.1 |
| COc1cccc(C2=NNC(=O)C2=NNc2cccc(Oc3ccccc3)c2)c1 [Compound 90] | < 0.1 |
| COc1ccc(C2=NNC(=O)C2=NNc2ccc(OC)c(-c3cccc(N)c3)c2)cc1OC [Compound 105, 4-[(3′-Amino-6-methoxy-biphenyl-3-yl)-hydrazono]-5-(3,4-dimethoxy-phenyl)-2,4-dihydro-pyrazol-3-one] | < 0.1 |
| COc1cc(OC)c(NN=C2C(=O)NN=C2c2ccc(OC)c(OC)c2)c(OC)c1 [Compound 112, 5-(3,4-Dimethoxy-phenyl)-4-[(2,4,6-trimethoxy-phenyl)-hydrazono]-2,4-dihydro-pyrazol-3-one] | 0.1 to 1 |
| COc1cc(C2=NNC(=O)C2=NNc2ccc(N3CCOCC3)cc2OC)ccc1O [Compound 113, 5-(4-Hydroxy-3-methoxy-phenyl)-4-[(2-methoxy-4-morpholin-4-yl-phenyl)-hydrazono]-2,4-dihydro-pyrazol-3-one] | 0.1 to 1 |
| COc1ccc(C2=NNC(=O)C2=NNc2ccc(OC)c(N3CCOCC3)c2)cc1OC [Compound 123, 5-(3,4-Dimethoxy-phenyl)-4-[(4-methoxy-3-morpholin-4-yl-phenyl)-hydrazono]-2,4-dihydro-pyrazol-3-one] | < 0.1 |
| COc1ccc(C2=NNC(=O)C2=NNc2ccc(OC)c(N3CCN(C)CC3)c2)cc1OC [Compound 125, 5-(3,4-Dimethoxy-phenyl)-4-{[4-methoxy-3-(4-methyl-piperazin-1-yl)-phenyl]-hydrazono}-2,4-dihydro-pyrazol-3-one] | < 0.1 |
| COc1ccc(C2=NNC(=O)C2=NNc2cccc(-c3ccccc3)c2)cc1 [Compound 203] | < 0.1 |
| COc1ccc(C2=NNC(=O)C2=NNc2cccc(-c3ccccc3)c2)cc1OC [Compound 204] | < 0.1 |
| COc1ccc(C2=NNC(=O)C2=NNc2ccc3c(c2)C(=O)c2ccccc2-3)cc1OC [Compound 207] | < 0.1 |
| O=C1NN=C(c2ccc(N3CCOCC3)cc2)C1=NNc1ccc2c(c1)C(=O)c1ccccc1-2 [Compound 208] | < 0.1 |
| CCn1c2ccccc2c2cc(NN=C3C(=O)NN=C3c3ccc(OC)cc3)ccc21 [Compound 217] | < 0.1 |
| COc1ccc(Nc2ccc(NC=C3C(=O)NN=C3c3ccc(OC)cc3)cc2)cc1 [Compound 224] | 0.1 to 1 |

Now from value to molecule:

| Ki [µM] | Structure (SMILES) |
| --- | --- |
| 0.1 to 1 | CC1=NNC(=O)/C1=N\Nc1ccccc1Cl [Compound 8] |
| < 0.1 | O=C1NN=C(c2cccnc2)C1=NNc1ccc(Cl)cc1 [Compound 18] |
| < 0.1 | O=C1NN=C(c2ccncc2)C1=NNc1ccc(Cl)cc1 [Compound 24] |
| < 0.1 | O=C1NN=C(c2ccccc2)/C1=N/Nc1ccc(Cl)cc1 [Compound 25] |
| 0.1 to 1 | COc1ccc(N/N=C2\C(=O)NN=C2c2ccccn2)cc1 [Compound 26] |
| 0.1 to 1 | COc1ccc(NN=C2C(=O)NN=C2c2ccccc2F)cc1 [Compound 33] |
| < 0.1 | CCN(CC)c1ccc(N/N=C2\C(=O)NN=C2c2ccc(OC)cc2)cc1 [Compound 36] |
| 0.1 to 1 | CCN(CC)c1ccc(NN=C2C(=O)NN=C2c2cc(OC)c(OC)c(OC)c2)cc1 [Compound 38] |
| 0.1 to 1 | COc1cc(N2CCOCC2)ccc1NN=C1C(=O)NN=C1c1ccc(OC)c(OC)c1 [Compound 40] |
| < 0.1 | O=C1NN=C(c2ccc3c(c2)OCO3)C1=NNc1ccc(Cl)cc1 [Compound 45] |
| < 0.1 | COc1ccc(NN=C2C(=O)NN=C2c2ccc3c(c2)OCO3)cc1 [Compound 48] |
| < 0.1 | COc1cccc(C2=NNC(=O)/C2=N\Nc2ccc(Cl)cc2)c1 [Compound 49] |
| < 0.1 | COc1ccc(C2=NNC(=O)C2=NNc2ccc(Br)cc2)cc1 [Compound 54] |
| < 0.1 | COc1cccc(C2=NNC(=O)C2=NNc2ccc(Br)cc2)c1 [Compound 56] |
| < 0.1 | COc1ccc(C2=NNC(=O)/C2=N\Nc2ccc(C#N)cc2)cc1 [Compound 57] |
| < 0.1 | COc1cccc(C2=NNC(=O)/C2=N\Nc2ccc(C#N)cc2)c1 [Compound 59] |
| < 0.1 | COc1ccc(C2=NNC(=O)C2=NNc2ccc(C(F)(F)F)cc2)cc1 [Compound 63] |

| Ki [µM] | Structure (SMILES) |
| --- | --- |
| < 0.1 | COc1ccc(C2=NNC(=O)C2=NNc2cccc(C(F)(F)F)c2)cc1OC [Compound 67] |
| < 0.1 | COc1cccc(C2=NNC(=O)C2=NNc2cccc(C(F)(F)F)c2)c1 [Compound 68] |
| < 0.1 | COc1cccc(N/N=C2\C(=O)NN=C2c2cccc(OC)c2)c1 [Compound 74] |
| < 0.1 | COc1cccc(C2=NNC(=O)C2=NNc2ccc([N+](=O)[O-])cc2)c1 [Compound 78] |
| < 0.1 | COc1ccc(C2=NNC(=O)C2=NNc2ccc(-c3ccccc3)cc2)cc1OC [Compound 80] |
| 0.1 to 1 | COc1cccc(C2=NNC(=O)C2=NNc2ccc(-c3ccc(F)cc3)cc2)c1 [Compound 84] |
| < 0.1 | COc1ccc(C2=NNC(=O)C2=NNc2ccc(Oc3ccccc3)cc2)cc1 [Compound 85] |
| < 0.1 | COc1ccc(C2=NNC(=O)C2=NNc2ccc(OC)c(-c3cc(OC)c(OC)c(OC)c3)c2)cc1OC [Compound 109, 5-(3,4-Dimethoxy-phenyl)-4-[(6,3′,4′,5′-tetramethoxy-biphenyl-3-yl)-hydrazono]-2,4-dihydro-pyrazol-3-one] |
| 0.1 to 1 | CCOc1cc(N2CCOCC2)c(OCC)cc1NN=C1C(=O)NN=C1c1ccc(OC)c(OC)c1 [Compound 111, 4-[(2,5-Diethoxy-4-morpholin-4-yl-phenyl)-hydrazono]-5-(3,4-dimethoxy-phenyl)-2,4-dihydro-pyrazol-3-one] |
| < 0.1 | COc1ccc(NN=C2C(=O)NN=C2c2cc(OC)c(OC)c(OC)c2)cc1N1CCOCC1 [Compound 124, 4-[(4-Methoxy-3-morpholin-4-yl-phenyl)-hydrazono]-5-(3,4,5-trimethoxy-phenyl)-2,4-dihydro-pyrazol-3-one] |
| < 0.1 | COc1cc(C2=NNC(=O)C2=NNc2ccc(OC)c(N3CCN(C)CC3)c2)ccc1OCc1ccccc1 [Compound 126, 5-(4-Benzyloxy-3-methoxy-phenyl)-4-{[4-methoxy-3-(4-methyl-piperazin-1-yl)-phenyl]-hydrazono}-2,4-dihydro-pyrazol-3-one] |
| < 0.1 | O=C1NN=C(c2ccc(N3CCOCC3)cc2)C1=NNc1cccc(-c2ccccc2)c1 [Compound 205] |
| < 0.1 | COc1ccc(C2=NNC(=O)C2=NNc2ccc3c(c2)C(=O)c2ccccc2-3)cc1 [Compound 206] |
| < 0.1 | COc1ccc(C2=NNC(=O)C2=NNc2ccc3c(c2)OCO3)cc1 [Compound 213] |
| < 0.1 | CCn1c2ccccc2c2cc(NN=C3C(=O)NN=C3c3ccc(OC)c(OC)c3)ccc21 [Compound 218] |
| < 0.1 | COc1ccc(C2=NNC(=O)C2=NNc2ccc(OC)c(-c3ccccc3)c2)cc1 [Compound 220] |
